# In patent US12139520B2 (priority 2020, dated 2024):
# Bridge positions count the residues as written; N and C are the ends. Square brackets hold non-standard residues; d marks the D form. Peptide text beside a SMILES is read from it. Hyp = O=C(O)[C@@H]1C[C@@H](O)CN1; Cit = NC(=O)NCCC[C@H](N)C(=O)O
# What was measured:
# hAMY3 receptor = target: T1, hAMY3 receptor (Homo sapiens, UniProt O60896+P30988); assay: cAMP assay for in vitro receptor activation, hAMY3-R; format: cell-based; conditions: cAMP assay, hAMY3 receptor; read-out: hAMY3R EC50
# T1 sequence (P30988 25-474): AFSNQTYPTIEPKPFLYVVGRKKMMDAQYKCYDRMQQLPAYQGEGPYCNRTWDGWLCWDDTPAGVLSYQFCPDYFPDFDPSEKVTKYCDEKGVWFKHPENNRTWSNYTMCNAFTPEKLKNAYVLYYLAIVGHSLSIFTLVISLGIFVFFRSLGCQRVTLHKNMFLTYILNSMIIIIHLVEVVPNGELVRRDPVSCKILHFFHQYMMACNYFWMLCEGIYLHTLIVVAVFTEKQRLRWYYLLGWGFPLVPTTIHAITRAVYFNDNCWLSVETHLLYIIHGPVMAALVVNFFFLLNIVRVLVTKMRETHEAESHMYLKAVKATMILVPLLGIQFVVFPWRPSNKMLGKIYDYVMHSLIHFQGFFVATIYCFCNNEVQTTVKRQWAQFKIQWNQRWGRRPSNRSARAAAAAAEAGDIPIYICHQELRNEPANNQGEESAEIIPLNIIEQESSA
# T1 sequence (O60896 24-148 partner): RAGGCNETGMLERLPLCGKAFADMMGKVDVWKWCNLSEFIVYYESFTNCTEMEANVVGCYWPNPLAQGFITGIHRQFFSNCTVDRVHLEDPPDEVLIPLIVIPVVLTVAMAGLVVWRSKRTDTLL
# Method in brief: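 Monoclonal cell line stably overexpressing human AMY3 receptor, 2000 cells/well in DPBS with 0.05% casein and 0.5 mM IBMX. Stimulated 30 min at room temperature with graded compound doses, human amylin as positive control. cAMP accumulation read by TR-FRET after one hour.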
# hAM1 receptor = hAM1 receptor (Homo sapiens, UniProt O60895+Q16602); assay: cAMP assay for in vitro receptor activation, hAM1-R; format: cell-based; conditions: cAMP assay, hAM1 receptor; read-out: hAM1R EC50
# Chain of hAM1 receptor (Q16602 23-461): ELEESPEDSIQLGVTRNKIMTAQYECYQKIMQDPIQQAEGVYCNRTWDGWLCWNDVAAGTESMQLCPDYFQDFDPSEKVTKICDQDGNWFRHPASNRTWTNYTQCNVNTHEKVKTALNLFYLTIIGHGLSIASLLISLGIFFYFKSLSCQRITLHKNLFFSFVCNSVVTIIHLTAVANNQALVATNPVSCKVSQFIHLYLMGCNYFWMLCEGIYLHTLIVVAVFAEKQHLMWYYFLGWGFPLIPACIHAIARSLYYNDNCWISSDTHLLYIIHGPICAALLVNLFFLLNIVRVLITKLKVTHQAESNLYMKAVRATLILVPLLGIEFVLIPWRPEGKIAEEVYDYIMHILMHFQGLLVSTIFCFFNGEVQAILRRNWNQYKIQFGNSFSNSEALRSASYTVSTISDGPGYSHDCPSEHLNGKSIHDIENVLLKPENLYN
# Chain of hAM1 receptor (O60895 43-175 partner): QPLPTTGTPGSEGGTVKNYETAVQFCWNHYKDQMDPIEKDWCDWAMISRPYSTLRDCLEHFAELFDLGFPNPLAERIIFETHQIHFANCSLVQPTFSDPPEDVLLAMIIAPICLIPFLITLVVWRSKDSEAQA
# Method in brief: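 Receptor activation, read as cAMP, was assessed in thawed cells of a monoclonal hAM1-overexpressing stable line, plated at 8000 cells/well in DPBS supplemented with 0.05% casein and 0.5 mM IBMX.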
# [1] = Physical stability of peptide analogues (Thioflavin T fibrillation); format: physicochemical; conditions: maximum ThT signal normalized between hAMY maximum and buffer background; 40° C., shaking, four days; pH 7 per table title
# Method in brief: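 Peptides in 50 mM sodium acetate pH 4 or 50 mM sodium phosphate pH 7 were preincubated 1 h, mixed with 4 μM ThT, held at 40° C with 700 rpm shaking before each read. Fluorescence (ex 450/em 480 nm) every 10 min for four days; LOESS-smoothed maximum signal normalized in percent between hAMY and buffer.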
EC50 (hAMY3 receptor),EC50 (hAM1 receptor),Max ThT signal (%) [1],SMILES
0.006 nM,> 5000 nM,12.050%,CC[C@H](C)[C@H](NC(=O)[C@H](CCC(N)=O)NC(=O)[C@H](Cc1c[nH]cn1)NC(=O)[C@H](C)NC(=O)[C@H](CC(C)C)NC(=O)[C@H](CCCNC(N)=O)NC(=O)[C@H](CCC(N)=O)NC(=O)[C@@H](NC(=O)[C@@H](NC(=O)[C@@H]1CSSC[C@H](NC(=O)[C@@H](N)CCCCN)C(=O)N[C@@H](CC(N)=O)C(=O)N[C@@H]([C@@H](C)O)C(=O)N[C@@H](C)C(=O)N[C@@H]([C@@H](C)O)C(=O)N1)[C@@H](C)O)C(C)C)C(=O)N[C@@H](Cc1ccc(O)cc1)C(=O)N[C@@H](CCC(N)=O)C(=O)N[C@@H](Cc1ccccc1)C(=O)N[C@H](C(=O)N[C@@H](CC(=O)O)C(=O)N[C@@H](CCCCN)C(=O)N[C@@H](CC(=O)O)C(=O)N[C@@H](CCCCN)C(=O)N[C@@H](CC(=O)O)C(=O)N[C@@H](CC(N)=O)C(=O)N[C@H](C(=O)N1CCC[C@H]1C(=O)N1CCC[C@H]1C(=O)N[C@H](C(=O)N[C@@H](CC(N)=O)C(=O)N[C@H](C(=O)NCC(=O)N[C@@H](CO)C(=O)N[C@@H](CC(N)=O)C(=O)NCC(=O)N1C[C@H](O)C[C@H]1C(N)=O)C(C)C)[C@@H](C)O)C(C)C)[C@@H](C)O [compound 254] (H-KCNTATCTVQ[Cit]LAHQIYQFTDKDKDNVPPTNVGSNG[Hyp]-NH2; disulfide 2-7)
0.012 nM,> 5000 nM,17.150%,CC[C@H](C)[C@H](NC(=O)[C@H](CCC(N)=O)NC(=O)[C@H](Cc1c[nH]cn1)NC(=O)[C@H](C)NC(=O)[C@H](CC(C)C)NC(=O)[C@H](Cc1c[nH]c2ccccc12)NC(=O)[C@H](CCC(N)=O)NC(=O)[C@@H](NC(=O)[C@@H](NC(=O)[C@@H]1CSSC[C@H](NC(=O)[C@@H](N)CCCCN)C(=O)N[C@@H](CC(N)=O)C(=O)N[C@@H]([C@@H](C)O)C(=O)N[C@@H](C)C(=O)N[C@@H]([C@@H](C)O)C(=O)N1)[C@@H](C)O)C(C)C)C(=O)N[C@@H](Cc1ccc(O)cc1)C(=O)N[C@@H](CCC(N)=O)C(=O)N[C@@H](Cc1ccccc1)C(=O)N[C@H](C(=O)N[C@@H](CC(=O)O)C(=O)N[C@@H](CCCCN)C(=O)N[C@@H](CC(=O)O)C(=O)N[C@@H](CCCCN)C(=O)N[C@@H](CC(=O)O)C(=O)N[C@@H](CC(N)=O)C(=O)N[C@@H](C)C(=O)N[C@@H](C)C(=O)N1CCC[C@H]1C(=O)N1CCC[C@H]1C(=O)N[C@H](C(=O)N[C@@H](CC(N)=O)C(=O)N[C@H](C(=O)NCC(=O)N[C@@H](CO)C(=O)N[C@@H](CC(N)=O)C(=O)NCC(=O)N1C[C@H](O)C[C@H]1C(N)=O)C(C)C)[C@@H](C)O)[C@@H](C)O [compound 315] (H-KCNTATCTVQWLAHQIYQFTDKDKDNAAPPTNVGSNG[Hyp]-NH2; disulfide 2-7; N-terminus assumed)

# Continued, molecule first:
SMILES,EC50 (hAMY3 receptor),EC50 (hAM1 receptor),Max ThT signal (%) [1]
CC[C@H](C)[C@H](NC(=O)[C@H](CCC(N)=O)NC(=O)[C@H](Cc1c[nH]cn1)NC(=O)[C@H](C)NC(=O)[C@H](CC(C)C)NC(=O)[C@H](CCCNC(=N)N)NC(=O)[C@H](CCC(N)=O)NC(=O)[C@@H](NC(=O)[C@@H](NC(=O)[C@@H]1CSSC[C@H](NC(=O)[C@@H](N)CCCCN)C(=O)N[C@@H](CC(N)=O)C(=O)N[C@@H]([C@@H](C)O)C(=O)N[C@@H](C)C(=O)N[C@@H]([C@@H](C)O)C(=O)N1)[C@@H](C)O)C(C)C)C(=O)N[C@@H](Cc1ccc(O)cc1)C(=O)N[C@@H](CCC(N)=O)C(=O)N[C@@H](Cc1ccccc1)C(=O)N[C@H](C(=O)N[C@@H](CC(=O)O)C(=O)N[C@@H](CCCCN)C(=O)N[C@@H](CC(=O)O)C(=O)N[C@@H](C)C(=O)N[C@@H](CC(=O)O)C(=O)N[C@@H](CC(N)=O)C(=O)N[C@H](C(=O)N[C@@H](C)C(=O)N1CCC[C@H]1C(=O)N1CCC[C@H]1C(=O)N[C@H](C(=O)N[C@@H](CC(N)=O)C(=O)N[C@H](C(=O)NCC(=O)N[C@@H](CO)C(=O)N[C@@H](CC(N)=O)C(=O)NCC(=O)N1C[C@H](O)C[C@H]1C(N)=O)C(C)C)[C@@H](C)O)C(C)C)[C@@H](C)O [compound 25] (H-KCNTATCTVQRLAHQIYQFTDKDADNVAPPTNVGSNG[Hyp]-NH2; disulfide 2-7; N-terminus assumed),0.008 nM,> 5000 nM,33.400%
CC[C@H](C)[C@H](NC(=O)[C@H](CCC(N)=O)NC(=O)[C@H](Cc1c[nH]cn1)NC(=O)[C@H](C)NC(=O)[C@H](CC(C)C)NC(=O)[C@H](CCCNC(=N)N)NC(=O)[C@H](CCC(N)=O)NC(=O)[C@@H](NC(=O)[C@@H](NC(=O)[C@@H]1CSSC[C@H](NC(=O)[C@@H](N)CCCCN)C(=O)N[C@@H](CC(N)=O)C(=O)N[C@@H]([C@@H](C)O)C(=O)N[C@@H](C)C(=O)N[C@@H]([C@@H](C)O)C(=O)N1)[C@@H](C)O)C(C)C)C(=O)N[C@@H](Cc1ccc(O)cc1)C(=O)N[C@@H](CCC(N)=O)C(=O)N[C@@H](Cc1ccccc1)C(=O)N[C@@H](C)C(=O)N[C@@H](CC(=O)O)C(=O)N[C@@H](CCCCN)C(=O)N[C@@H](CC(=O)O)C(=O)N[C@@H](CCCCN)C(=O)N[C@@H](CC(=O)O)C(=O)N[C@@H](CC(N)=O)C(=O)N[C@H](C(=O)N[C@@H](C)C(=O)N1CCC[C@H]1C(=O)N1CCC[C@H]1C(=O)N[C@H](C(=O)N[C@@H](CC(N)=O)C(=O)N[C@H](C(=O)NCC(=O)N[C@@H](CO)C(=O)N[C@@H](CC(N)=O)C(=O)NCC(=O)N1C[C@H](O)C[C@H]1C(N)=O)C(C)C)[C@@H](C)O)C(C)C [compound 23] (H-KCNTATCTVQRLAHQIYQFADKDKDNVAPPTNVGSNG[Hyp]-NH2; disulfide 2-7),0.008 nM,> 5000 nM,4.200%
CC[C@H](C)[C@H](NC(=O)[C@H](CCC(N)=O)NC(=O)[C@H](Cc1c[nH]cn1)NC(=O)[C@H](C)NC(=O)[C@H](CC(C)C)NC(=O)[C@H](CCCNC(=N)N)NC(=O)[C@H](CCC(N)=O)NC(=O)[C@@H](NC(=O)[C@@H](NC(=O)[C@@H]1CSSC[C@H](NC(=O)[C@@H](N)CCCCN)C(=O)N[C@@H](CC(N)=O)C(=O)N[C@@H]([C@@H](C)O)C(=O)N[C@@H](C)C(=O)N[C@@H]([C@@H](C)O)C(=O)N1)[C@@H](C)O)C(C)C)C(=O)N[C@@H](Cc1ccc(O)cc1)C(=O)N[C@@H](CCC(N)=O)C(=O)N[C@@H](Cc1ccccc1)C(=O)N[C@H](C(=O)N[C@@H](CC(=O)O)C(=O)N[C@@H](CCCCN)C(=O)N[C@@H](CC(=O)O)C(=O)N[C@@H](CCCCN)C(=O)N[C@@H](C)C(=O)N[C@@H](CC(N)=O)C(=O)N[C@H](C(=O)N[C@@H](C)C(=O)N1CCC[C@H]1C(=O)N1CCC[C@H]1C(=O)N[C@H](C(=O)N[C@@H](CC(N)=O)C(=O)N[C@H](C(=O)NCC(=O)N[C@@H](CO)C(=O)N[C@@H](CC(N)=O)C(=O)NCC(=O)N1C[C@H](O)C[C@H]1C(N)=O)C(C)C)[C@@H](C)O)C(C)C)[C@@H](C)O [compound 26] (H-KCNTATCTVQRLAHQIYQFTDKDKANVAPPTNVGSNG[Hyp]-NH2; disulfide 2-7; N-terminus assumed),0.008 nM,> 5000 nM,0.000%
CC[C@H](C)[C@H](NC(=O)[C@H](CCC(N)=O)NC(=O)[C@H](Cc1c[nH]cn1)NC(=O)[C@H](C)NC(=O)[C@H](CC(C)C)NC(=O)[C@H](CCCNC(=N)N)NC(=O)[C@H](CCC(N)=O)NC(=O)[C@@H](NC(=O)[C@@H](NC(=O)[C@@H]1CSSC[C@H](NC(=O)[C@@H](N)CCCCN)C(=O)N[C@@H](CC(N)=O)C(=O)N[C@@H]([C@@H](C)O)C(=O)N[C@@H](C)C(=O)N[C@@H]([C@@H](C)O)C(=O)N1)[C@@H](C)O)C(C)C)C(=O)N[C@@H](Cc1ccc(O)cc1)C(=O)N[C@@H](CCC(N)=O)C(=O)N[C@H](C(=O)N[C@@H](CC(=O)O)C(=O)N[C@@H](CCCCN)C(=O)N[C@@H](CC(=O)O)C(=O)N[C@@H](CCCCN)C(=O)N[C@@H](CC(=O)O)C(=O)N[C@@H](CC(N)=O)C(=O)N[C@H](C(=O)N[C@@H](C)C(=O)N1CCC[C@H]1C(=O)N1CCC[C@H]1C(=O)N[C@H](C(=O)N[C@@H](CC(N)=O)C(=O)N[C@H](C(=O)NCC(=O)N[C@@H](CO)C(=O)N[C@@H](CC(N)=O)C(=O)NCC(=O)N1C[C@H](O)C[C@H]1C(N)=O)C(C)C)[C@@H](C)O)C(C)C)[C@@H](C)O [compound 195] (H-KCNTATCTVQRLAHQIYQTDKDKDNVAPPTNVGSNG[Hyp]-NH2; disulfide 2-7; N-terminus assumed),0.112 nM,> 5000 nM,6.100%
